Test results published in article PMC11484510, “Antibacterial activity of structurally diverse natural prenylated isobavachalcone derivatives” (RSC Advances, 2024).
Counter-ions that a name gives are not always drawn. Like-named read-outs stand apart in the source and are kept apart here.

Assays:
[1] = system: S. aureus; experiment: Combinational study (checkerboard microdilution) with standard drugs; type: cell-based
Procedure: The Fractional Inhibitory Concentration Index (FICI) was calculated for each test compound and reference drug to find the combinational effect.
In a 96-well flat bottom plate, the reference drug with 4× MIC was serially diluted horizontally. The test compounds with 4× MIC were serially diluted two-fold outside the plate in 1.5 mL Eppendorf's using Mueller Hinton Broth (MHB). These two serially diluted compounds were combined to create drug-compound combinations in the plate. The reference drug (horizontally) and tested compounds (vertically) alone were serially diluted for MIC determination. 100 μL of the standardized bacterial inoculum with a turbidity equivalent to a 0.5 McFarland standard were diluted 1 : 100 in Mueller Hinton Broth and inoculated in the plates. The plates were incubated for 24 hours at 37 °C. After incubation, 10 μL of freshly prepared Alamar blue (Himedia) was added to each well of the plate, and the plates were further incubated at 37 °C for 30 minutes. After incubation, the plates were visually observed. […] The FICI was calculated using the formula FICI = FIC of compound + FIC of drug. The calculation followed is FICI (CA/(MICA)) + (CB/(MICB)), where CA is the MIC of the compound in combination, CB is the MIC of the drug in combination, and MICA and MICB are the MIC values of individual compounds and drugs, respectively. The range selection followed the interpretation criteria. The FICI range of 0.5 to 4 indicates indifference, ≤ or =0.5 indicates synergy and >4 indicates antagonism.[57]

[2] = system: E. coli ATCC 25922; experiment: MIC, broth microdilution (CLSI), Alamar blue; type: cell-based; conditions: E. coli ATCC 25922, 24 hours at 37 °C, read-out: Minimum inhibitory concentration (MIC) E. coli
From the text: (§1) The bacterial strains S. aureus ATCC 29213, MRSA ATCC 15187, E. coli ATCC 25922, and P. aeruginosa ATCC 27853 were obtained from ATCC (American Type Culture Collection). Cation-adjusted Mueller–Hinton broth (MHB; Becton–Dickinson, Cockeysville, MD) was used to determine the minimum inhibitory concentration (MIC). Mueller–Hinton agar (MHA; Becton–Dickinson) was used for minimum bactericidal concentration (MBC) studies. Alamar blue (Himedia) was used to detect the MIC value.
(§2) The antibacterial activity of the compounds against S. aureus ATCC 29213, MRSA ATCC 15187, E. coli ATCC 25922, and P. aeruginosa ATCC 27853 was determined through a broth microdilution method according to the guidelines of the Clinical and Laboratory Standards Institute (CLSI).[50] […] Growth control and media control were employed along with 2% DMSO as vehicle control.
(§3) In a 96-well flat bottom plate, the test compounds were two-fold serially diluted in Mueller Hinton Broth (MHB). The final concentrations of the compounds ranged from 100 to 0.08 μM. 100 μL of standardized bacterial inoculum with turbidity equivalent to 0.5 McFarland standard (1.5 × 10^8 CFU mL^−1) was diluted 1 : 100 (1.5 × 10^6 CFU mL^−1) in Mueller Hinton Broth and inoculated in the plates.[51] The plates were incubated for 24 hours at 37 °C. After incubation, 10 μL of freshly prepared Alamar blue (Himedia) was added to each well of the plate, and plates were further incubated at 37 °C for 30 minutes. After incubation, the fluorescence was measured at excitation/emission of 540–570/580–610 nm. The percentage inhibition and viability were calculated for the controls, and the Gompertz curve was utilized to estimate the minimum inhibitory concentration.

[3] = system: S. aureus ATCC 29213; experiment: MIC, broth microdilution (CLSI), Alamar blue; type: cell-based; conditions: S. aureus ATCC 29213, 24 hours at 37 °C, read-out: Minimum inhibitory concentration (MIC) S. aureus
From the text: as §1, §2, §3

[4] = system: P. aeruginosa ATCC 27853; experiment: MIC, broth microdilution (CLSI), Alamar blue; type: cell-based; conditions: P. aeruginosa ATCC 27853, 24 hours at 37 °C, read-out: Minimum inhibitory concentration (MIC) P. aeruginosa
From the text: as §1, §2, §3

[5] = system: MRSA ATCC 15187; experiment: MIC, broth microdilution (CLSI), Alamar blue; type: cell-based, Methicillin-resistant S. aureus; conditions: MRSA ATCC 15187, 24 hours at 37 °C, read-out: Minimum inhibitory concentration (MIC) MRSA
From the text: as §1, §2, §3

[6] = Staphylococcus aureus, ATCC29213
[7] = Pseudomonas aeruginosa, ATCC27853, 24 h

O=C(O)c1cn(C2CC2)c2cc(N3CCNCC3)c(F)cc2c1=O [Ciprofloxacin, ciprofloxacin hydrochloride monohydrate, reference compound]
0.3125 µM: MIC combination (drug) ([1]; MIC of ciprofloxacin in combination with IBC-2, S. aureus) | MIC combination (drug) ([1]; MIC of ciprofloxacin in combination with IBC-3, S. aureus)
0.156 µM: MIC combination (drug) ([1]; MIC of ciprofloxacin in combination with IBC, S. aureus)

COc1ccc(/C=C/C(=O)c2ccc(OC)c(CC=C(C)C)c2OC)cc1 [IBC-4, (E)-1-(2,4-dimethoxy-3-(3-methylbut-2-en-1-yl)phenyl)-3-(4-methoxyphenyl)prop-2-en-1-one]
>100 µM: MIC [2] | MIC [3] | MIC [4] | MIC [5]
> 100 µM: MIC ([2]; Escherichia coli, ATCC25922) | MIC [3, 6] | MIC [4, 7] | MIC ([5]; Staphylococcus aureus)

CC(C)=CCc1c(OCC(=O)N2CCOCC2)ccc(C(=O)/C=C/c2ccc(OCC(=O)N3CCOCC3)cc2)c1OCC(=O)N1CCOCC1 [IBC-5, (E)-2,2′-((2-(3-methylbut-2-en-1-yl)-4-(3-(4-(2-morpholino-2-oxoethoxy)phenyl)acryloyl)-1,3-phenylene)bis(oxy)) bis (1-morpholinoethan-1-one)]
> 100 µM: MIC ([2]; Escherichia coli, ATCC25922) | MIC [3, 6] | MIC [4, 7] | MIC ([5]; Staphylococcus aureus)
>100 µM: MIC [2] | MIC [3] | MIC [4] | MIC [5]

CC(C)=CCc1c(O)ccc(C(=O)/C=C/c2ccc(OCC(=O)Nc3ccc(Cl)cn3)cc2)c1O [IBC-6, (E)-N-(5-chloropyridin-2-yl)-2-(4-(3-(2,4-dihydroxy-3-(3-methylbut-2-en-1-yl)phenyl)-3-oxoprop-1-en-1-yl)phenoxy) acetamide]
>100 µM: MIC [2] | MIC [3] | MIC [4] | MIC [5]
> 100 µM: MIC ([2]; Escherichia coli, ATCC25922) | MIC [3, 6] | MIC [4, 7] | MIC ([5]; Staphylococcus aureus)

CC(C)=CCc1c(O)ccc(C(=O)/C=C/c2ccc(OCC(=O)Nc3c(C)n(C)n(-c4ccccc4)c3=O)cc2)c1O [IBC-7, (E)-2-(4-(3-(2,4-dihydroxy-3-(3-methylbut-2-en-1-yl)phenyl)-3-oxoprop-1-en-1-yl)phenoxy)-N-(1,5-dimethyl-3-oxo-2-phenyl-2,3-dihydro-1H-pyrazol-4-yl) acetamide]
> 100 µM: MIC ([2]; Escherichia coli, ATCC25922) | MIC [3, 6] | MIC [4, 7] | MIC ([5]; Staphylococcus aureus)
>100 µM: MIC [2] | MIC [3] | MIC [4] | MIC [5]

CC(C)=CCc1c(OCC(=O)N2CCCC2)ccc(C(=O)/C=C/c2ccc(OCC(=O)N3CCCC3)cc2)c1O [IBC-8, (E)-1-(2-hydroxy-3-(3-methylbut-2-en-1-yl)-4-(2-oxo-2-(pyrrolidin-1-yl)ethoxy)phenyl)-3-(4-(2-oxo-2-(pyrrolidin-1-yl)ethoxy)phenyl) prop-2-en-1-one]
>100 µM: MIC [2] | MIC [3] | MIC [4] | MIC [5]
> 100 µM: MIC ([2]; Escherichia coli, ATCC25922) | MIC [3, 6] | MIC [4, 7] | MIC ([5]; Staphylococcus aureus)

CC(C)=CCc1c(O)ccc(C(=O)/C=C/c2ccc(OCC(=O)Nc3cc(C)[nH]n3)cc2)c1O [IBC-9, (E)-2-(4-(3-(2,4-dihydroxy-3-(3-methylbut-2-en-1-yl)phenyl)-3-oxoprop-1-en-1-yl)phenoxy)-N-(5-methyl-1H-pyrazol-3-yl)acetamide]
> 100 µM: MIC ([2]; Escherichia coli, ATCC25922) | MIC [3, 6] | MIC [4, 7] | MIC ([5]; Staphylococcus aureus)
>100 µM: MIC [2] | MIC [3] | MIC [4] | MIC [5]

CC(C)=CCc1c(O)ccc(C(=O)/C=C/c2ccc(OCC(=O)N3CCSCC3)cc2)c1O [IBC-10, (E)-1-(2,4-dihydroxy-3-(3-methylbut-2-en-1-yl)phenyl)-3-(4-(2-oxo-2-thiomorpholinoethoxy)phenyl)-prop-2-en-1-one]
> 100 µM: MIC ([2]; Escherichia coli, ATCC25922) | MIC [3, 6] | MIC [4, 7] | MIC ([5]; Staphylococcus aureus)
>100 µM: MIC [2] | MIC [3] | MIC [4] | MIC [5]

NC[C@H]1O[C@H](O[C@H]2[C@H](O)[C@@H](O[C@H]3O[C@H](CO)[C@@H](O)[C@H](N)[C@H]3O)[C@H](N)C[C@@H]2N)[C@H](O)[C@@H](O)[C@@H]1O [Kanamycin, kanamycin sulfate, reference compound]
2.8 µM: MIC [4, 7]
